The structures appear in SMILES notation. Like-named read-outs stand apart in the source and are kept apart here.

One test deals with Hep-G2 HCC cells. As to the kind of experiment: Cell cycle analysis by flow cytometry. It is filed as cell-based, human. Particulars: 48 h. The protocol:
To determine if the HCC cell selective cytotoxicity of STR-V-53 results from its perturbation of the cell cycle pattern, we evaluated the effect of STR-V-53 on the cycle progression by flow cytometry using SAHA as a control (Figure 4).
Figure 4 Effect of STR-V-53 treatment on HCC cell cycle progression. (a–c) Human Hep-G2 HCC cells were cultured until 80% confluence in a 10 cm Petri dish. The cells were serum-starved overnight before drug treatment. Then, the cells were treated with 10 mL of 0.1% DMSO medium and 0.1% DMSO solution of SAHA (5 μM) or STR-V-53 (15 μM) for 48 h. Control group (ai); SAHA (5 μM)-treated group (aii), and STR-V-53 (15 μM)-treated group (aiii and biii). (c) Quantification of the cell cycle data from two independent experiments. Bars show mean plus standard deviation; *P < 0.0332; **P < 0.0021; ***P < 0.0002; ****P < 0.00001.
MIDI 4-20% gel (Biorad, cat. 5671093) and ran at 150 V for 70 min. […] After washing with TBS-T 3x5 mins, bands were quantified using the Odyssey CLx Image system.
Hep-G2 or VERO cells were seeded (2500 to 4,000 counts/well) into 96-well plates, in which each well contains 100 µL media. […] After 2.5-4 h incubation, the plates were read using a multiplate reader at 490 nm. […]
Then cells were treated with another 500 µL of 100 ug/mL PI staining at room temperature for 30 min. The cell cycle was analyzed with BD FACS Aria Illu analyzer, and the data were […]
On the technique in general: A flow cytometer gives signals particle by particle.

Another test has as its system Hep-G2 cells. As to the kind of experiment: GLUT-2 uptake experiment (phloretin blockade, MTS). It is filed as cell-based. Particulars: Homo sapiens, read-out: Hep-G2 Cell Viability %; for viability at 1.25 µM: HepG2, 1.25 μM; for viability at 2.5 µM: HepG2, 2.5 μM; for viability at 6.25 µM: HepG2, 6.25 μM; for viability at 12.5 µM: HepG2, 12.5 μM. The protocol: We observed that Ph selectively mitigated the cytotoxicity of STR-V-53 against the Hep-G2 cell line with no apparent effect on the cytotoxicity of SAHA (Figure 2a). […] This matches our expectation because Hep-G2 cells overexpress GLUT-2 while VERO has limited expression of GLUT-2.[26]
MIDI 4-20% gel (Biorad, cat. 5671093) and ran at 150 V for 70 min. The gel was then transferred onto the Turbo PDVF membrane (Biorad, 1704273), and after blocking with 5% BSA for 1-2 h, the membrane was incubated overnight with primary antibodies Ac-Tubulin (sc-23950), Ac-H4 (sc-515319) (Santa Cruz Biotechnology), caspase 3 and clv-Caspase 3 (Cell signaling Technology), anti-p21WAF/CIP (ThermoFisher), anti-GAPDH (Aldrich-Sigma). On the second day, the membrane was washed with TBST for 3x5 min; a secondary antibody (LiCOR) was added, and the membrane was incubated with agitation for 1 h. After washing with TBS-T 3x5 mins, bands were quantified using the Odyssey CLx Image system.
Hep-G2 or VERO cells were seeded (2500 to 4,000 counts/well) into 96-well plates, in which each well contains 100 µL media. The cells were cultured overnight in the respective media described in the cell culture section above. On day 2, the cells were treated with 25 µM Phloretin for 24 h. On day 3, 200x stock solutions of STR-V-53 and SAHA were used to prepare 2x treatment solution by adding 1% stock solution in the media. Then, without removal of the media in 96-well plates, the same volumes of drug as the media were added directly to the wells with gentle pipetting to reach 1x drug solution with 25 µM Ph. After another 72 h, the media were removed, and new media (100 µL) added to the wells. MTS solution (20 µL) was added to each well. After 2.5-4 h incubation, the plates were read using a multiplate reader at 490 nm. The data were processed using GraphPad Prism 8.
Hep-G2 cells (5*106) were seeded in a 10 cm plate with MEM and incubated until 50% confluency before drug treatment. Cells were treated, with DMSO (control) and DMSO solutions of SAHA (5 µM) and STR-V-53 (15 µM) such that the final DMSO level was 0.1%,

The subject of another test is Hep-G2 (HCC). As to the kind of experiment: MTS cell viability assay, 72 h. Particulars: Table S2; read-out: Anti-proliferation IC50 Hep-G2. It is filed as cell-based, human. An excerpt:
We then screened STR-V-53 and all the synthesized glycosylated HDACi for their effects on the viability of three cell lines: A549 (lung adenocarcinoma), Hep-G2 (HCC), and VERO (a normal kidney epithelial cell). We used SORA and STR-V-48, a previously disclosed nonglycosylated compound, as controls.[25] […] Additionally, compound STR-V-167, the peracetylated analog of STR-V-53, largely retained the Hep-G2 selectivity of STR-V-53 (Table S2). Subsequently, we evaluated the effects of STR-V-53 on cell proliferation using a panel of human HCC cell lines (Huh-7, SK-Hep-1, and Hep3B) as well as Kupffer cells (liver resident macrophages) by MTS assay. We observed that STR-V-53 is 7- to 16-fold more cytotoxic against these HCC cell lines relative to the Kupffer cells (Figure 1g). […] Based on their weak HDAC and cell proliferation inhibition activities, we de-emphasized further evaluation of the class III compounds.
10-017-CV), supplemented with 10% fetal bovine serum (FBS) (Corning, 35-010-CV). Hep-G2 cells were cultured in phenol red-free Minimum Essential Medium (MEM) (Corning, 17-305-CV), supplemented with 10% fetal bovine serum (FBS). SK-Hep-1 in ATCC-formulated EMEM (ATCC® 30–2003™); Huh-7 in DMEM (containing 4 mM L-glutamine and 1 g/L glucose) with […]
Kupffer Cell Media (Sekisui XenoTech, LLC, Cat. #K8700). Cells were seeded into a 96-well plate (2000 counts/100uL) for 24 h prior to treatment and then treated with various drug concentrations for 72 h. All drugs were dissolved in media with DMSO concentration maintained at 1%. The effect of compounds on cell viability was measured using the MTS assay (CellTiter 96 Aqueous One Solution and CellTiter 96 Non-Radioactive Cell Proliferation Assays, Promega, Madison, WI) as described by the manufacturer. IC50s were determined using Prism GraphPad 8. […]
(Tetrazolium dyes change colour on reduction, which living cells bring about.)

As to `O=C(CCCCCCC(=O)Nc1ccccc1)NO` [SAHA, vorinostat, reference compound], in the test on Hep-G2 HCC cells (5 μM), the Cell cycle progression entry is on record as “significant S phase arrest”. Besides, the viability (usually a read-out of living cells in per cent, often relative to untreated cells) at 1.25 µM with Hep-G2 cells (No addition of Ph) was 96.2%; in the test with Hep-G2 cells (Pre-treated with 25 μM Ph), 84%. Also, the figures for the viability at 2.5 µM with Hep-G2 cells (No addition of Ph) and in the test with Hep-G2 cells (Pre-treated with 25 μM Ph) were 31.2% and 41.8%, respectively.
For the compound `O=C(CCCCCCn1cc(-c2ccc3cc(O[C@H]4O[C@H](CO)[C@@H](O)[C@H](O)[C@H]4O)ccc3c2)nn1)NO` [STR-V-114], the IC50 with Hep-G2 (HCC) worked out at 6.7 ± 1.6 µM.
In the case of `O=C(CCCCCCn1cc(-c2ccc(O[C@H]3O[C@H](CO)[C@@H](O)[C@H](O)[C@H]3O)cc2)nn1)NO` [STR-V-53], in the test on Hep-G2 HCC cells (15 μM), the Cell cycle progression result is “significant S phase arrest”. The viability at 6.25 µM in the test with Hep-G2 cells (No addition of Ph) was 104%; with Hep-G2 cells (Pre-treated with 25 μM Ph) it was 103%. The viability at 12.5 µM with Hep-G2 cells (No addition of Ph) turned out to be 25.4%; in the test with Hep-G2 cells (Pre-treated with 25 μM Ph) it was 70.3%.
On to `O=C(CCCCCCn1cc(-c2ccc(O[C@@H]3O[C@H](CO)[C@@H](O)[C@H](O)[C@H]3O)cc2)nn1)NO` [STR-I-195], for which the IC50 in the test with Hep-G2 (HCC) was found to be 22.3 ± 2 µM.
